Earlier results in patent US10639299B2, “Calcium sensing receptors, ligands, compositions, and methods of use” (Georgia State University Research Foundation, Inc., priority 2016, dated 2020).

Assays:
[1] = biological target: T1, CaSR (Bos taurus, UniProt P35384); conditions: X. laevis oocytes; cited from earlier work
T1 construct: host or cells: X. laevis oocytes
T1 sequence (P35384 20-1085): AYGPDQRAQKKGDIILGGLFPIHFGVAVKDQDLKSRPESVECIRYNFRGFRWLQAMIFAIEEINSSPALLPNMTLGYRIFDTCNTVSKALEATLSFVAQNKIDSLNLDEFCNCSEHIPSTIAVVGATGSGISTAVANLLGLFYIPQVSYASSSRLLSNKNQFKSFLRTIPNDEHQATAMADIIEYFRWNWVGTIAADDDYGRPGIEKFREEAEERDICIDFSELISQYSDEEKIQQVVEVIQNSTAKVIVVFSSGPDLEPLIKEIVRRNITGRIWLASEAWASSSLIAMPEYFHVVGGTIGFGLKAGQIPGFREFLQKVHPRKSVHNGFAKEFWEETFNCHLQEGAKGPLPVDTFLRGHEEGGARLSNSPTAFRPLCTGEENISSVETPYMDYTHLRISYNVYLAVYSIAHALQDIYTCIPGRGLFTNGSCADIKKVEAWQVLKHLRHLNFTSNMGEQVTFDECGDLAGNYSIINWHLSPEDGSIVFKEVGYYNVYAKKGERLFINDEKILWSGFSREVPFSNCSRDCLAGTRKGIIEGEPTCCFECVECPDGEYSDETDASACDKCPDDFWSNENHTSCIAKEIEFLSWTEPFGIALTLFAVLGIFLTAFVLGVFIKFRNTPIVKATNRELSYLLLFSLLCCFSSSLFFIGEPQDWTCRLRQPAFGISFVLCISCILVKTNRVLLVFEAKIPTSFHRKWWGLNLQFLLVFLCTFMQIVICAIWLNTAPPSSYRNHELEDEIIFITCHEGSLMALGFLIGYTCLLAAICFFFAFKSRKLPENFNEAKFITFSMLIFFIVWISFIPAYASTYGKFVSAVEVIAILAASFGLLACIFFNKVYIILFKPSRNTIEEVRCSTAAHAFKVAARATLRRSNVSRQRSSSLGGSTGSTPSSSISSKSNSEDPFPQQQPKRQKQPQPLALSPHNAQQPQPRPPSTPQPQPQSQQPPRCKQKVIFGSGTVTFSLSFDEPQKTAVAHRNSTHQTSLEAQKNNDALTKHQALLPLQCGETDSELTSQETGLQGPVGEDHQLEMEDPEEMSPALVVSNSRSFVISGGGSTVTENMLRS

[2] = biological target: T2, CaSR (Homo sapiens, UniProt P41180); design: host or cells: HEK cells, transient; conditions: HEK cells, in the presence of 150 mM NaCl; read-out: EC50 for intracellular calcium responses; cited from earlier work
T2 sequence (P41180 20-1078): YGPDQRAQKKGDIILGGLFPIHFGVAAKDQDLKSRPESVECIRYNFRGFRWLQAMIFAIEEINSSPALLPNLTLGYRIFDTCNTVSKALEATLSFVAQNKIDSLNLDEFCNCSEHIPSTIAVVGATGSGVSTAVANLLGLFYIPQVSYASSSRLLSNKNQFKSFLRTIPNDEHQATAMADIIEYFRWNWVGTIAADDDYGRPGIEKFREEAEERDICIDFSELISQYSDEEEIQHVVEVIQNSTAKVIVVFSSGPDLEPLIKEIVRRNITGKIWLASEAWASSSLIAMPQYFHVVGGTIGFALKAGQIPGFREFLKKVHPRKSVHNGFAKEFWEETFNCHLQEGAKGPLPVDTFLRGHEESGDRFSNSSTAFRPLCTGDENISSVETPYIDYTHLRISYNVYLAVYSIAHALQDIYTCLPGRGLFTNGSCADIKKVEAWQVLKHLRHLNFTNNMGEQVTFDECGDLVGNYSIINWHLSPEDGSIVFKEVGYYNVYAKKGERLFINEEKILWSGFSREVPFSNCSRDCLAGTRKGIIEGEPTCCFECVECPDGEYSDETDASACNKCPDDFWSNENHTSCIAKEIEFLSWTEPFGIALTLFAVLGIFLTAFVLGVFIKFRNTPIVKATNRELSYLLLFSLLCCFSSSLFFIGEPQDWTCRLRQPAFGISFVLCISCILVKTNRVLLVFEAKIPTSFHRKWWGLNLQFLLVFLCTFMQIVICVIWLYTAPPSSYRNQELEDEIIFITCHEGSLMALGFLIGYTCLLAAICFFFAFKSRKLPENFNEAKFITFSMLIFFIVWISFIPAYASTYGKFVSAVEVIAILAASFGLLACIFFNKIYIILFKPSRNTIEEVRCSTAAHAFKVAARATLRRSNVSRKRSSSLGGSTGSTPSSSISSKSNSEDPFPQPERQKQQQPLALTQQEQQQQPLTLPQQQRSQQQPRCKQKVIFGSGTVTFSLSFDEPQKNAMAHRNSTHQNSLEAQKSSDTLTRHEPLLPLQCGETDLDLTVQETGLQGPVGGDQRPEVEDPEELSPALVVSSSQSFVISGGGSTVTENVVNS

[3] = biological target: T3, rat CaSR (Rattus norvegicus, UniProt P48442); conditions: CHO cells; cited from earlier work
T3 construct: host or cells: CHO cells, transient
T3 sequence (P48442 20-1079): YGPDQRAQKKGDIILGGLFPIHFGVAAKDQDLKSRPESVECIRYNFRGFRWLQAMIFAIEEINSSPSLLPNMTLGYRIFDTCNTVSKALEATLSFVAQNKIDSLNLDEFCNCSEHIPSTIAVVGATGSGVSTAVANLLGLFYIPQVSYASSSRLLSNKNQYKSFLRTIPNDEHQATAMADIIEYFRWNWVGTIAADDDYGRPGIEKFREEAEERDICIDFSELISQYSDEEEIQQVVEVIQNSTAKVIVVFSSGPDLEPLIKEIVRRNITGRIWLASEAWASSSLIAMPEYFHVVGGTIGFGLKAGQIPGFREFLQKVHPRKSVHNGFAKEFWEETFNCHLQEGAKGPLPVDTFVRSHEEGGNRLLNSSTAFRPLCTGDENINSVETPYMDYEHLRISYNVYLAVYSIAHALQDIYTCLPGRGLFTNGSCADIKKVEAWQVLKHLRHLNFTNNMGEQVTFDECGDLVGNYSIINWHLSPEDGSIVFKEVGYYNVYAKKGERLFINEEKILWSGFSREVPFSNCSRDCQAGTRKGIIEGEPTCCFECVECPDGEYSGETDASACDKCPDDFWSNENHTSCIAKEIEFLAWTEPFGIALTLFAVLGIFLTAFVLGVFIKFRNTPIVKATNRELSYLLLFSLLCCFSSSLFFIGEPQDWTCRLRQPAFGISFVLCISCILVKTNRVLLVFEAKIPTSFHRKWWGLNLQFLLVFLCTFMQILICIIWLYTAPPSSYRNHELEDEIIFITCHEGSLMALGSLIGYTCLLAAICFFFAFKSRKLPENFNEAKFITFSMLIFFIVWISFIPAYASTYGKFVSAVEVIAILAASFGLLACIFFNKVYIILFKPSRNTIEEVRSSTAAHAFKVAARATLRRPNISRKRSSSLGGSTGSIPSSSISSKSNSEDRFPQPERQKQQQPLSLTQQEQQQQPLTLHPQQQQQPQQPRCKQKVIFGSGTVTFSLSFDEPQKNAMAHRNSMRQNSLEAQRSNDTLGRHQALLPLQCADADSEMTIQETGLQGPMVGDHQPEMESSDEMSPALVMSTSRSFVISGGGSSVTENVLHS

[Mg+2] [Mg^2+, magnesium]
EC50 [1]: 10 mM
EC50 [2]: 15 to 20 mM
EC50 relative to that of Ca^2+ [3]: about twice
